{"source": "paper PMC6255753", "about": "“Investigation of the phosphorylation of Bacillus subtilis LTA synthases by the serine/threonine kinase PrkC” (Scientific Reports, 2018)", "assay_in_all_cases": "thermal shift titration (SYPRO Orange), Hill fit", "assay_type_in_all_cases": "binding", "settings_in_all_cases": "read-out: Apparent KD", "key": {"eYfnI (YfnI) [1]": {"target": "T1, eYfnI (YfnI) (Bacillus subtilis, UniProt Q797B3, T297A)", "T1 construct": "gene ltaS1; extracellular catalytic domain (borders not given), N-terminal 6His tag removed by AcTEV; E. coli Rosetta; pProEX-eYfnI", "T1 sequence (Q797B3 215-639 T297A)": "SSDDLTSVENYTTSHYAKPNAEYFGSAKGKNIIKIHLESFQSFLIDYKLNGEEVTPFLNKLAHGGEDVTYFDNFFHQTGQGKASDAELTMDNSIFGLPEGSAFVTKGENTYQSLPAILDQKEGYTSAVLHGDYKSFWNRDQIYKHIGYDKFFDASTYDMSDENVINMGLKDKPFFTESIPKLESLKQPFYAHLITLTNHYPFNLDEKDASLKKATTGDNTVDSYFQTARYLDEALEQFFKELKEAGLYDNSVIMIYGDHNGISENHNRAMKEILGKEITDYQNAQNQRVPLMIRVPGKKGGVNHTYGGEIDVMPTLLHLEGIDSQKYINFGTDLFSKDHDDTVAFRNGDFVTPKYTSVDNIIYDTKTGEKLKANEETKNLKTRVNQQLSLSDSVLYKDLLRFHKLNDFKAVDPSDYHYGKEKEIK", "text": "(§1) thermal shift titration (SYPRO Orange), Hill fit on eYfnI (YfnI)"}, "eYfnI (YfnI) [2]": {"target": "T2, eYfnI (YfnI) (Bacillus subtilis, UniProt Q797B3, T297D)", "T2 construct": "gene ltaS1; extracellular catalytic domain (borders not given), N-terminal 6His tag removed by AcTEV; E. coli Rosetta; pProEX-eYfnI", "T2 sequence (Q797B3 215-639 T297D)": "as the sequence (Q797B3 215-639 T297A) above, with A83D counted along it", "text": "as §1"}, "eYfnI (YfnI) [3]": {"target": "T3, eYfnI (YfnI) (Bacillus subtilis, UniProt Q797B3)", "T3 construct": "gene ltaS1; extracellular catalytic domain (borders not given), N-terminal 6His tag removed by AcTEV; E. coli Rosetta; pProEX-eYfnI", "T3 sequence (Q797B3 215-639)": "as the sequence (Q797B3 215-639 T297A) above, with A83T counted along it", "text": "as §1"}}}
{"smiles": "O=P(O)(O)OCC(O)CO", "note": "(stereo not drawn) [GroP]", "values": [{"measurement": "Kd", "setting": "eYfnI (YfnI) [1]", "value": 8, "unit": "mM"}, {"measurement": "Kd", "setting": "eYfnI (YfnI) [2]", "value": 5.4, "unit": "mM"}, {"measurement": "Kd", "setting": "eYfnI (YfnI) [3]", "value": 2.9, "unit": "mM"}]}
